Experimental data from PMC10931676 (International Journal of Molecular Sciences, 2024).
Read-outs that look alike come from different tables or passages of the source.

Experiment: Permeability and efflux ratio in Caco-2 cells
Assay type: in vitro ADME
Conditions: human; for recovery at 120 min, 10 µM: Caco-2, Caco-2, 10 µM
Description: Human colon carcinoma (Caco-2) cells, which were obtained from Military Medical Research Institute, were maintained in Dulbecco’s modified Eagle’s medium. Caco-2 cells were seeded onto […] (PET) in 96-well Falcon insert systems at 2 × 10^5 cells/cm^2 for 21–28 days for confluent cell monolayer formation. […] Test compounds were diluted with the transport buffer (HBSS without BSA) from a 10 mM stock solution to a concentration of 10 µM and applied to the apical or basolateral side of the cell monolayer. Permeation of the test compounds in the direction from A to B or from B to A was determined in duplicate over a 120-min incubation at 37 °C and 5% CO2 with a relative humidity of 95%. In addition, the efflux ratio of each compound was also determined. Test and reference compounds were quantified by LC-MS/MS analysis based on the peak area ratio of analyte/IS. The apparent permeability coefficient Papp (cm/s) was calculated using the following equation:Papp = (dCr/dt) × Vr/(A × C0) where dCr/dt is the cumulative concentration of the compound in the receiver chamber as a function of time (S); Vr is the solution volume in the receiver chamber (0.1 mL on the apical side, 0.25 mL on the basolateral side); A is the surface area for the transport, i.e., 0.0804 cm^2 for the area of the monolayer; C0 is the initial concentration in the donor chamber. […] Cd and Cr are the final concentrations of transport compound in donor and receiver chambers, respectively. Cc is the compound concentration in the cell lysate solution. Vc is the volume of insert well (0.1 mL in this assay).

[1] = Caco-2, 10 µM, 120-min incubation, 37 °C

Row | Structure (SMILES) | recovery at 120 min, 10 µM (read-out: Mean Recovery % A to B) [%] | Papp A→B at 120 min, 10 µM [1] [×10⁻⁶ cm/s] | recovery at 120 min, 10 µM (read-out: Mean Recovery % B to A) [%] | Papp B→A at 120 min, 10 µM [1] [×10⁻⁶ cm/s]
1 | CC(C)NCC(O)COc1cccc2ccccc12 (centres unmarked) [Propranolol] | 81 | 29.4 | – | –
2 | C[C@H]1O[C@@H](O[C@H]2[C@@H](O)C[C@H](O[C@H]3[C@@H](O)C[C@H](O[C@H]4CC[C@@]5(C)[C@H](CC[C@@H]6[C@@H]5C[C@@H](O)[C@]5(C)[C@@H](C7=CC(=O)OC7)CC[C@]65O)C4)O[C@@H]3C)O[C@@H]2C)C[C@H](O)[C@@H]1O [Digoxin] | – | 0.65 | 95.3 | 14.6
